Source: publication PMC6513986, “Molecular basis for heat desensitization of TRPV1 ion channels” (Nature Communications, 2019)
Read-outs that look alike come from different tables or passages of the source.

What was measured:
Polar bear TRPV1 = Polar bear TRPV1 (Ursus maritimus, UniProt A0A384CG69); experiment: Agonist activation, patch clamp, HEK293T; type: cell-based; settings: read-out: EC50_Capsaicin
Camel TRPV1 = Camel TRPV1 (Camelus ferus, UniProt A0A8B8UHM1); experiment: Agonist activation, patch clamp, HEK293T; type: cell-based; settings: read-out: EC50_Capsaicin
Sequence of Camel TRPV1 (A0A8B8UHM1 1-838): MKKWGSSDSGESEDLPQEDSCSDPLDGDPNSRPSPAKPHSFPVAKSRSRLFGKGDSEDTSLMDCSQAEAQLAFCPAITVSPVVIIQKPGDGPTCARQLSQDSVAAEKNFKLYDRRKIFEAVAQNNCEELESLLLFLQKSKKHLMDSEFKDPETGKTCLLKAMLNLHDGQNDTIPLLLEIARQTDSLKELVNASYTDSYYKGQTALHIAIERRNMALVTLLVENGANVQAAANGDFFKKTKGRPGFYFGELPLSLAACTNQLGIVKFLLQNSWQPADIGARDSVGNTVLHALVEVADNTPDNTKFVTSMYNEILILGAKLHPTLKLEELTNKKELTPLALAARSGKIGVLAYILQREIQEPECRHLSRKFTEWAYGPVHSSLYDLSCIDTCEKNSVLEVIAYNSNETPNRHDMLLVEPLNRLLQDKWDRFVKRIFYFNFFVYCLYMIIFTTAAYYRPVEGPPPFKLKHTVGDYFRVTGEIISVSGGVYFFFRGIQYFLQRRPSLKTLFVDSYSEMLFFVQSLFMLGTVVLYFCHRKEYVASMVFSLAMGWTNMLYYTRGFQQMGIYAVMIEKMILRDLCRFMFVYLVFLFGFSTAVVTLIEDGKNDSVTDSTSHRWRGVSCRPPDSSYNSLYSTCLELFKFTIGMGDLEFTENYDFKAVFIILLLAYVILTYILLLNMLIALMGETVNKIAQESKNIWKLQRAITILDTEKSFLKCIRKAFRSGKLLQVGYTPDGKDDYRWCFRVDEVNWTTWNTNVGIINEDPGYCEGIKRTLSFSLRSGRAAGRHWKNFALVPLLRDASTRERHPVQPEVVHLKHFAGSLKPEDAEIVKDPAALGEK

pV1_mC chimera = pV1_mC chimera (Ornithorhynchus anatinus, UniProt F7A7B4); experiment: Agonist activation, patch clamp, HEK293T; type: cell-based, platypus / mouse; settings: read-out: EC50_Capsaicin
Sequence of pV1_mC chimera (F7A7B4 1-691, change not shown): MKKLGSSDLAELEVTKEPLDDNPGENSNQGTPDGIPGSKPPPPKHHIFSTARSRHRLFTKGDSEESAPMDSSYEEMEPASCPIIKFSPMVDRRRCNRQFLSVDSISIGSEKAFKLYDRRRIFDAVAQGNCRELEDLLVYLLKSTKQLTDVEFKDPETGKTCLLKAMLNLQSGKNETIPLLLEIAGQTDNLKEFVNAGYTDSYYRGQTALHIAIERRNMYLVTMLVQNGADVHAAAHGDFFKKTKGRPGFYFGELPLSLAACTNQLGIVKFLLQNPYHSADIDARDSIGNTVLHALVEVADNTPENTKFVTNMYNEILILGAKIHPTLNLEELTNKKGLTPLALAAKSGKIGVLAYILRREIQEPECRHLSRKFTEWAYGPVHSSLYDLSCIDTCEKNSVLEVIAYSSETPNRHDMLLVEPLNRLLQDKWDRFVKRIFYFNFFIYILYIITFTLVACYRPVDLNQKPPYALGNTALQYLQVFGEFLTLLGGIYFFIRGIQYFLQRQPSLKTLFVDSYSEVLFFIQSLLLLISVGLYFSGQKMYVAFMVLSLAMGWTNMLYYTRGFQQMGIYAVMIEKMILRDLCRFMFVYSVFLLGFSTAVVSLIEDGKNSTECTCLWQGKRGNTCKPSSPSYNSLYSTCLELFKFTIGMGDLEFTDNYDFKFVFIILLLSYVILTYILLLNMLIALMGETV
Sequence of pV1_mC chimera (Q704Y3 688-839 partner): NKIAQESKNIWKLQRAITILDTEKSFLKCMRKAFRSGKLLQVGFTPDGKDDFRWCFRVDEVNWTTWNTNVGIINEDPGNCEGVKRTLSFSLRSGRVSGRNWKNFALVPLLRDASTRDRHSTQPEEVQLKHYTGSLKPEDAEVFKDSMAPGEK

pV1_mN chimera = pV1_mN chimera (Ornithorhynchus anatinus, UniProt F7A7B4); experiment: Agonist activation, patch clamp, HEK293T; type: cell-based, platypus / mouse; settings: read-out: EC50_Capsaicin
Sequence of pV1_mN chimera (F7A7B4 436-842, change not shown): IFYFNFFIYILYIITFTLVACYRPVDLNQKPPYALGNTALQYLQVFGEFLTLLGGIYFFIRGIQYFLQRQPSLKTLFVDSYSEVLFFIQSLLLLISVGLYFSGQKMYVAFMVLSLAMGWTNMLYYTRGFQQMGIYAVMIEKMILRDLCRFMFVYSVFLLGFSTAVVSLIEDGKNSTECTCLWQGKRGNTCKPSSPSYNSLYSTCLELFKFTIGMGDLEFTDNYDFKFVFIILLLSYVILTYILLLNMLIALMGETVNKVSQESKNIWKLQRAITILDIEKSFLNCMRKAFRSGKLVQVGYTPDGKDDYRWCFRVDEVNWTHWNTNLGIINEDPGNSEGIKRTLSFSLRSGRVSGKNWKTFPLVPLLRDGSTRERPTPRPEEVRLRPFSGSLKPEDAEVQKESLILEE
Sequence of pV1_mN chimera (Q704Y3 1-433 partner): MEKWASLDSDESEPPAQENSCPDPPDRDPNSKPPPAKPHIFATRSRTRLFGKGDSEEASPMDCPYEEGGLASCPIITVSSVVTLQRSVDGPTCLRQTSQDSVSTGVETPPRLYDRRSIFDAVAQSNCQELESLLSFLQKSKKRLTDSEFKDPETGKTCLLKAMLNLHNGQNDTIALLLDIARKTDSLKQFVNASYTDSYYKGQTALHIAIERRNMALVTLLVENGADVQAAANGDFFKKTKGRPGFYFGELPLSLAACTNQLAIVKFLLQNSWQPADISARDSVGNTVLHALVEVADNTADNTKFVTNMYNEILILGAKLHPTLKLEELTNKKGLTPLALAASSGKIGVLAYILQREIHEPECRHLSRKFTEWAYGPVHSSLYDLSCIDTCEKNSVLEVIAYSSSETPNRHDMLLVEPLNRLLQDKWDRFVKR

pV1_mNC chimera = pV1_mNC chimera (Ornithorhynchus anatinus, UniProt F7A7B4); experiment: Agonist activation, patch clamp, HEK293T; type: cell-based, platypus / mouse; settings: read-out: EC50_Capsaicin
mV1 CΔ10 (Phe830-Lys839) = mV1 CΔ10 (Phe830-Lys839) (Mus musculus, UniProt Q704Y3); experiment: Agonist activation, patch clamp, HEK293T; type: cell-based; settings: read-out: EC50_Capsaicin
Sequence of mV1 CΔ10 (Phe830-Lys839) (Q704Y3 1-829, stated change not applied): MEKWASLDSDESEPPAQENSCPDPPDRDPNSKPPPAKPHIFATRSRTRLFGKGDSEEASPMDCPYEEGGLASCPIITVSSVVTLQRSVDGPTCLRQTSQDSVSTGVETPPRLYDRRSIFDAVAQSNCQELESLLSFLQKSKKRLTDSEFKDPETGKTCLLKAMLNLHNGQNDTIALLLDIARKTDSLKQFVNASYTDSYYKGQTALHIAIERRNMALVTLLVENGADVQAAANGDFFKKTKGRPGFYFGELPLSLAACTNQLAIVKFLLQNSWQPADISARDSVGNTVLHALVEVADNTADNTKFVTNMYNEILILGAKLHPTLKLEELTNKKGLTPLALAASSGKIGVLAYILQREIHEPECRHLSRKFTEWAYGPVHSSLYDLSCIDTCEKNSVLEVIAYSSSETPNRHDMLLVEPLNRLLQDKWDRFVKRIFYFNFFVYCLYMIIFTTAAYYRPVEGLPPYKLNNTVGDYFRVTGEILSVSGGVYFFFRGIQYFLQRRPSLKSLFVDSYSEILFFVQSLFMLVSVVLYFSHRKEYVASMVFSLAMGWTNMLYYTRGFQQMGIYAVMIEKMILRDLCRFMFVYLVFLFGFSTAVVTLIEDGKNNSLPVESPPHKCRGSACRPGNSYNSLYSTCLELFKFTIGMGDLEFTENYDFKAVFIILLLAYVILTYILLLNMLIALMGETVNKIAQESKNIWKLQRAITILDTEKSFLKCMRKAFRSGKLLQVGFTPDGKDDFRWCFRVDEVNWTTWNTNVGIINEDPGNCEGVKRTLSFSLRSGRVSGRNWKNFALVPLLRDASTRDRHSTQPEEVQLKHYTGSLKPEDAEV

mV1 S116A = mV1 S116A (Mus musculus, UniProt Q704Y3, S117A); experiment: Agonist activation, patch clamp, HEK293T; type: cell-based; settings: read-out: EC50_Capsaicin
Sequence of mV1 S116A (Q704Y3 whole entry S117A): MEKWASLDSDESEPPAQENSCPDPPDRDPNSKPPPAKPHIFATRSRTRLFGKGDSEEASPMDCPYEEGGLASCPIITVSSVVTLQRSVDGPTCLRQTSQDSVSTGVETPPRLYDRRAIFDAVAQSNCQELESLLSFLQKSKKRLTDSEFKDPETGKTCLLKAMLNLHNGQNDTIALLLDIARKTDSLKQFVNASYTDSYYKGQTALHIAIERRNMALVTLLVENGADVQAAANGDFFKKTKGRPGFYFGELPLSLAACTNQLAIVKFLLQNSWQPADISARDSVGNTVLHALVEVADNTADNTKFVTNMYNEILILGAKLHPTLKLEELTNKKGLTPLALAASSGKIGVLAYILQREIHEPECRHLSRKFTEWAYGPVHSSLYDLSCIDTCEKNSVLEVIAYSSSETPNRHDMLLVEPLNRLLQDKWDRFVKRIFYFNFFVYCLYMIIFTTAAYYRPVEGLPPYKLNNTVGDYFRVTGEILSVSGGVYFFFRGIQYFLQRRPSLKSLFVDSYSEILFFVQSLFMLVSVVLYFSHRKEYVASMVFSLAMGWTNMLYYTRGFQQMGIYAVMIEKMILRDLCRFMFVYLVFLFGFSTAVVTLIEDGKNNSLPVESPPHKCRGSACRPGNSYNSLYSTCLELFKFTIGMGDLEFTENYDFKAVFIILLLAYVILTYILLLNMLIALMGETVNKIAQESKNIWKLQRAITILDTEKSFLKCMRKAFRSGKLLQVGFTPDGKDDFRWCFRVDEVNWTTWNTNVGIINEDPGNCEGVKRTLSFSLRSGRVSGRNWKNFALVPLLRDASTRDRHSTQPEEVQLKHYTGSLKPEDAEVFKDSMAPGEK

mV1 T371G = mV1 T371G (Mus musculus, UniProt Q704Y3, T371G); experiment: Agonist activation, patch clamp, HEK293T; type: cell-based; settings: read-out: EC50_Capsaicin
Sequence of mV1 T371G (Q704Y3 whole entry T371G): as the sequence (Q704Y3 whole entry S117A) above, with A117S, T371G counted along it

mV1 E838A = mV1 E838A (Mus musculus, UniProt Q704Y3, E838A); experiment: Agonist activation, patch clamp, HEK293T; type: cell-based; settings: read-out: EC50_Capsaicin
Sequence of mV1 E838A (Q704Y3 whole entry E838A): as the sequence (Q704Y3 whole entry S117A) above, with A117S, E838A counted along it

mV1 K839A = mV1 K839A (Mus musculus, UniProt Q704Y3, K839A); experiment: Agonist activation, patch clamp, HEK293T; type: cell-based; settings: read-out: EC50_Capsaicin
Sequence of mV1 K839A (Q704Y3 whole entry K839A): as the sequence (Q704Y3 whole entry S117A) above, with A117S, K839A counted along it

mV1_241 (ANAP) = mV1_241 (ANAP) (Mus musculus, UniProt Q704Y3, K241X); experiment: Agonist activation of ANAP-incorporated channel, patch clamp; type: cell-based
mV1_579 (ANAP) = mV1_579 (ANAP) (Mus musculus, UniProt Q704Y3, C579X); experiment: as above; type: cell-based
mV1_630 (ANAP) = mV1_630 (ANAP) (Mus musculus, UniProt Q704Y3, S630X); experiment: as above; type: cell-based
mV1_648 (ANAP) = mV1_648 (ANAP) (Mus musculus, UniProt Q704Y3, L648X); experiment: as above; type: cell-based
[1] = system: DRG neurons of p-trpv1 mice; experiment: Patch clamp of DRG neurons of p-trpv1 mice; type: cell-based, mouse; settings: small diameter DRG neurons, patch clamping
Method: All recordings were performed at room temperature.
DRG neurons were acutely dissociated and maintained in a short-term primary culture according to procedures. Briefly, after mice were killed by CO2 inhalation and decapitated, vertebral column was opened by a dorsal approach. DRG neurons were collected using fine forceps from both sides of the spinal column and transferred into DMEM medium (GIBCO), and the spinal nerves were cut off using fine ophthalmological scissors and digested by […] (m/m, Sigma) for 20 min. Following the wash of collagenase and trypsin, DRG neurons were incubated at 37 °C in 5% CO2. Cells were used for electrophysiological experiments within the next 24 h.

Q: What does the source list for `COc1cc(CNC(=O)CCCC/C=C/C(C)C)ccc1O` [Capsaicin, capsaicin]?
A: EC50 (Polar bear TRPV1; mean ± s.e.m., n = 3): 0.313 µM; EC50 (Polar bear TRPV1; replicate 1): 0.262 µM; EC50 (Polar bear TRPV1; replicate 2): 0.336 µM; EC50 (Polar bear TRPV1; replicate 3): 0.341 µM; EC50 (Camel TRPV1; mean ± s.e.m., n = 5): 0.54 µM; EC50 (Camel TRPV1; replicate 1): 0.445 µM; EC50 (Camel TRPV1; replicate 2): 0.443 µM; EC50 (Camel TRPV1; replicate 3): 0.562 µM; EC50 (Camel TRPV1; replicate 4): 0.619 µM; EC50 (Camel TRPV1; replicate 5): 0.631 µM; EC50 (pV1_mC chimera; mean ± s.e.m., n = 6): 0.31 µM; EC50 (pV1_mC chimera; replicate 3): 0.388 µM; EC50 (pV1_mC chimera; replicate 4): 0.257 µM; EC50 (pV1_mC chimera; replicate 5): 0.354 µM; EC50 (pV1_mC chimera; replicate 6): 0.3 µM; EC50 (pV1_mN chimera; mean ± s.e.m., n = 6): 0.313 µM; EC50 (pV1_mN chimera; replicate 2): 0.294 µM; EC50 (pV1_mN chimera; replicate 3): 0.36 µM; EC50 (pV1_mN chimera; replicate 5): 0.279 µM; EC50 (pV1_mNC chimera; mean ± s.e.m., n = 6): 0.306 µM; EC50 (pV1_mNC chimera; replicate 3): 0.3 µM; EC50 (pV1_mNC chimera; replicate 4): 0.276 µM; EC50 (mV1 CΔ10 (Phe830-Lys839); mean ± s.e.m., n = 6): 0.354 µM; EC50 (mV1 CΔ10 (Phe830-Lys839); replicate 1): 0.215 µM; EC50 (mV1 CΔ10 (Phe830-Lys839); replicate 3): 0.313 µM; EC50 (mV1 CΔ10 (Phe830-Lys839); replicate 4): 0.407 µM; EC50 (mV1 CΔ10 (Phe830-Lys839); replicate 5): 0.457 µM; EC50 (mV1 CΔ10 (Phe830-Lys839); replicate 6): 0.463 µM; EC50 (mV1 S116A; mean ± s.e.m., n = 3): 0.186 µM; EC50 (mV1 S116A; replicate 1): 0.191 µM; EC50 (mV1 S116A; replicate 2): 0.161 µM; EC50 (mV1 S116A; replicate 3): 0.206 µM; EC50 (mV1 T371G; mean ± s.e.m., n = 3): 0.322 µM; EC50 (mV1 T371G; replicate 1): 0.349 µM; EC50 (mV1 T371G; replicate 2): 0.332 µM; EC50 (mV1 E838A; mean ± s.e.m., n = 3): 0.565 µM; EC50 (mV1 E838A; replicate 1): 0.66 µM; EC50 (mV1 E838A; replicate 2): 0.597 µM; EC50 (mV1 E838A; replicate 3): 0.438 µM; EC50 (mV1 K839A; mean ± s.e.m., n = 3): 0.293 µM; EC50 (mV1 K839A; replicate 1): 0.268 µM; EC50 (mV1 K839A; replicate 2): 0.292 µM; EC50 (mV1_241 (ANAP)): 0.29 µM; EC50_Capsaicin (mV1_241 (ANAP); replicate 1): 0.256 µM; EC50_Capsaicin (mV1_241 (ANAP); replicate 2): 0.283 µM; EC50_Capsaicin (mV1_241 (ANAP); replicate 3): 0.296 µM; EC50_Capsaicin (mV1_241 (ANAP); replicate 4): 0.299 µM; EC50_Capsaicin (mV1_241 (ANAP); replicate 5): 0.316 µM; EC50 (mV1_579 (ANAP)): 0.293 µM; EC50_Capsaicin (mV1_579 (ANAP); replicate 2): 0.297 µM; EC50 (mV1_630 (ANAP)): 0.299 µM; EC50_Capsaicin (mV1_630 (ANAP); replicate 1): 0.325 µM; EC50_Capsaicin (mV1_630 (ANAP); replicate 2): 0.289 µM; EC50_Capsaicin (mV1_630 (ANAP); replicate 3): 0.31 µM; EC50_Capsaicin (mV1_630 (ANAP); replicate 4): 0.272 µM; EC50 (mV1_648 (ANAP)): 0.296 µM; EC50_Capsaicin (mV1_648 (ANAP); replicate 1): 0.301 µM; EC50_Capsaicin (mV1_648 (ANAP); replicate 2): 0.286 µM; EC50_Capsaicin (mV1_648 (ANAP); replicate 3): 0.312 µM; EC50_Capsaicin (mV1_648 (ANAP); replicate 5): 0.289 µM; response to capsaicin [1]: well maintained
